The text below walks through data of DBAASP.

Values after ≈ are worked out from the molar mass of the structure shown. A value given as a limit tells only on which side of the number the result lay.

Common to all, as to assay: ≥ marks a high value that may be exact or a test limit, other limits are often not marked, values filed in µg/mL are converted to µM
Assay [1] deals with Bacillus subtilis.
Assay [2] deals with Candida albicans.
Assay [3] relates to Escherichia coli.
The subject of assay [4] is Staphylococcus aureus.
Assay [5] relates to Pseudomonas aeruginosa ATCC 27853.
For assay [6], the system named is Pseudomonas aeruginosa PAO1.
For assay [7], the system named is Staphylococcus aureus ATCC 25923.
The subject of assay [8] is Staphylococcus aureus ATCC 43300.
Assay [9] has as its system Pseudomonas aeruginosa ATCC 9027.
Assay [10] relates to Staphylococcus aureus ATCC 6538.
Assay [11] concerns Acinetobacter baumannii ATCC 19606.
The subject of assay [12] is Escherichia coli ATCC 25922.
Assay [13] relates to Bacillus cereus.
Assay [14] has as its system Bacillus subtilis ATCC 6633.

Take `CC[C@H](C)[C@H](NC(=O)[C@H](CCCN=C(N)N)NC(=O)[C@@H](NC(=O)[C@@H]1CCCN1C(=O)[C@H](CCCN=C(N)N)NC(=O)[C@@H](NC(=O)[C@@H]1CCCN1C(=O)[C@H](CC(C)C)NC(=O)[C@H](CC(C)C)NC(=O)CNC(=O)[C@H](Cc1cnc[nH]1)NC(=O)[C@@H]1CCCN1C(=O)CNC(=O)[C@H](Cc1ccccc1)NC(=O)[C@H](CC(=O)O)NC(=O)[C@H](Cc1c[nH]c2ccccc12)NC(=O)[C@H](C)NC(=O)[C@@H](NC(=O)[C@H](C)N)[C@@H](C)O)[C@@H](C)CC)[C@@H](C)CC)C(=O)N[C@@H](CCCN=C(N)N)C(=O)N1CCC[C@H]1C(=O)N[C@@H](CC(C)C)C(=O)N[C@@H](CS)C(=O)NCC(=O)N[C@@H](CCCCN)C(=O)N[C@@H](CC(=O)O)C(=O)N[C@@H](CCCCN)C(=O)N[C@@H](CO)C(=O)O` [ATAWDFGPHGLLPIRPIRIRPLCGKDKS]: the MIC was 24.1 µM (≈ 75 µg/mL) in assay [1], 6.02 µM (≈ 18.8 µg/mL) in assay [2], 3.01 µM (≈ 9.37 µg/mL) in assay [3] and 1.5 µM (≈ 4.68 µg/mL) in assay [4].
As for `CC[C@H](C)[C@H](NC(=O)[C@H](CCCCN)NC(=O)[C@H](Cc1cnc[nH]1)NC(=O)[C@H](CC(N)=O)NC(=O)[C@H](Cc1c[nH]c2ccccc12)NC(=O)CNC(=O)[C@H](C)NC(=O)[C@H](CO)NC(=O)[C@@H](NC(=O)[C@@H](NC(=O)[C@@H](N)CS)C(C)C)[C@@H](C)CC)C(=O)N[C@@H](CCCN=C(N)N)C(=O)N[C@H]1CSSC[C@@H](C(=O)O)NC(=O)[C@H](CC(N)=O)NC(=O)CNC(=O)[C@H]([C@@H](C)O)NC(=O)[C@H](CC(C)C)NC(=O)[C@H](CCCCN)NC1=O` [CVISAGWNHKIRCKLTGNC], the MIC in [5] was determined as 11.9 µM (≈ 25 µg/mL); in assay [6], 11.9 µM (≈ 25 µg/mL); in [7], 23.8 µM (≈ 50 µg/mL); in assay [8], 23.8 µM (≈ 50 µg/mL).
Consider `CC(C)C[C@H](NC(=O)[C@H](C)NC(=O)[C@H](CCCCN)NC(=O)[C@H](CCCCN)NC(=O)[C@H](CC(C)C)NC(=O)[C@H](Cc1ccccc1)NC(=O)[C@H](CCCCN)NC(=O)[C@H](C)NC(=O)[C@H](CC(C)C)NC(=O)[C@H](Cc1ccccc1)NC(=O)[C@H](CCCCN)NC(=O)[C@H](C)NC(=O)[C@@H](N)Cc1ccccc1)C(N)=O` [FAKFLAKFLKKAL], for which the minimal inhibitory concentration (MIC) in [9] came to 65.6 µM (≈ 99.9 µg/mL); in assay [10], 3.28 µM (≈ 5 µg/mL).
In the case of `CC[C@H](C)[C@H](NC(=O)[C@H](CC(C)C)NC(=O)[C@H](CCCCN)NC(=O)[C@H](CCCCN)NC(=O)[C@H](C)NC(=O)[C@H](CC(C)C)NC(=O)[C@H](CCCCN)NC(=O)[C@H](CCCCN)NC(=O)[C@H](CC(C)C)NC(=O)[C@H](CCCCN)NC(=O)[C@H](CCCCN)NC(=O)[C@H](C)NC(=O)[C@H](CC(C)C)NC(=O)[C@H](CCCCN)NC(=O)[C@H](CCCCN)NC(=O)[C@H](C)NC(=O)[C@@H](N)Cc1ccccc1)C(=O)NCC(=O)N[C@@H](C)C(=O)N[C@H](C(=O)N[C@@H](CC(C)C)C(=O)N[C@@H](CCCCN)C(=O)N[C@H](C(=O)O)C(C)C)C(C)C` [FAKKLAKKLKKLAKKLIGAVLKV], the values for the MIC in [9] and in assay [10] were greater than 78.8 µM and 39.4 µM (≈ 100 µg/mL), respectively.
Consider `CC(C)C[C@H](NC(=O)[C@H](C)NC(=O)[C@H](CCCCN)NC(=O)[C@H](CCCCN)NC(=O)[C@H](CC(C)C)NC(=O)[C@H](C)NC(=O)[C@H](CCCCN)NC(=O)[C@H](C)NC(=O)[C@H](CC(C)C)NC(=O)[C@H](CC(C)C)NC(=O)[C@H](CCCCN)NC(=O)[C@H](C)NC(=O)[C@@H](N)Cc1ccccc1)C(N)=O` [FAKLLAKALKKAL], for which the MIC stood at 7.07 µM (≈ 9.99 µg/mL) in [9] and 3.53 µM (≈ 5 µg/mL) in [10].
The matching figures for `CC(C)C[C@H](NC(=O)[C@H](CCCCN)NC(=O)[C@H](CCCCN)NC(=O)[C@H](C)NC(=O)[C@H](CC(C)C)NC(=O)[C@H](CCCCN)NC(=O)[C@H](C)NC(=O)[C@H](Cc1c[nH]c2ccccc12)NC(=O)[C@H](CC(C)C)NC(=O)[C@H](CCCCN)NC(=O)[C@H](C)NC(=O)[C@@H](N)Cc1ccccc1)C(N)=O` [FAKLWAKLAKKL]: 35.3 µM (≈ 50 µg/mL) and 70.6 µM (≈ 99.9 µg/mL).
Consider `CC(C)C[C@H](NC(=O)[C@H](CC(C)C)NC(=O)[C@H](CCCCN)NC(=O)[C@H](CCCCN)NC(=O)[C@H](CC(C)C)NC(=O)[C@H](CC(=O)O)NC(=O)[C@H](CCCCN)NC(=O)[C@H](CC(C)C)NC(=O)[C@@H](N)Cc1ccccc1)C(N)=O` [FLKDLKKLL], for which the minimal inhibitory concentration (MIC) was greater than 115 µM in assay [11], greater than 115 µM in assay [12], 14.3 µM (≈ 16 µg/mL) in assay [5] and greater than 115 µM in [7].
`CC(C)C[C@H](NC(=O)CN)C(=O)N[C@@H](Cc1ccccc1)C(=O)NCC(=O)N[C@@H](CCCCN)C(=O)N[C@@H](CO)C(=O)N[C@@H](CO)C(=O)N[C@H](C(=O)N[C@@H](Cc1c[nH]c2ccccc12)C(=O)NCC(=O)N[C@@H](CCCN=C(N)N)C(=O)N[C@@H](CCCCN)C(=O)N[C@@H](Cc1ccc(O)cc1)C(=O)N[C@@H](Cc1ccc(O)cc1)C(=O)N[C@H](C(=O)N[C@@H](CC(=O)O)C(=O)N[C@@H](CC(C)C)C(=O)N[C@@H](C)C(=O)NCC(=O)N[C@@H](CS)C(=O)N[C@@H](C)C(=O)N[C@@H](CCCCN)C(=O)N[C@@H](C)C(=O)O)C(C)C)C(C)C` [GLFGKSSVWGRKYYVDLAGCAKA]: the minimal inhibitory concentration (MIC) stood at 2.54 µM (≈ 6.3 µg/mL) in assay [1], 1.27 µM (≈ 3.15 µg/mL) in assay [2], 5.09 µM (≈ 12.6 µg/mL) in [3] and 2.54 µM (≈ 6.3 µg/mL) in assay [4].
`CC[C@H](C)[C@H](N)C(=O)N[C@@H](C)C(=O)N[C@@H](CO)C(=O)N[C@@H](C)C(=O)N[C@H](C(=O)N1CCC[C@H]1C(=O)N[C@H](C(=O)N[C@@H](CS)C(=O)N[C@H](C(=O)N[C@@H](CCCCN)C(=O)NCC(=O)N[C@@H](CCCCN)C(=O)N[C@H](C(=O)N[C@@H](CO)C(=O)N[C@@H](CCCCN)C(=O)N[C@@H](CO)C(=O)N[C@@H](Cc1ccc(O)cc1)C(=O)N[C@H](C(=O)N[C@@H](CO)C(=O)N[C@H](C(=O)O)C(C)C)[C@@H](C)CC)[C@@H](C)CC)C(C)C)C(C)C)C(C)C` [IASAVPVCVKGKISKSYISV]: the MIC in assay [13] is no less than 125 µM; in assay [3] it was greater than 125 µM.
In turn, `CC(C)C[C@@H]1NC(=O)CNC(=O)[C@H]([C@@H](C)O)NC(=O)[C@@H]2CCCN2C(=O)[C@H](CC(C)C)NC(=O)CNC(=O)[C@H](CC(N)=O)NC(=O)[C@H](CC(N)=O)NC(=O)[C@H](Cc2ccc(O)cc2)NC(=O)[C@H](C(C)C)NC(=O)[C@H](CCCN=C(N)N)NC(=O)[C@@H](NC(=O)[C@H](CCCN=C(N)N)NC(=O)[C@H](Cc2cnc[nH]2)NC(=O)[C@H](CCCCN)NC(=O)[C@H](CCCCN)NC(=O)[C@H](CCCN=C(N)N)NC(=O)[C@@H](N)CCCCN)CSSC[C@@H](C(N)=O)NC(=O)[C@H](Cc2c[nH]c3ccccc23)NC(=O)[C@H](CCCN=C(N)N)NC(=O)[C@H](Cc2ccc(O)cc2)NC1=O` [KRKKHRCRVYNNGLPTGLYRWC] had a minimal inhibitory concentration (MIC) in assay [10] of 1.1 µM (≈ 3.02 µg/mL). That is a single-digit micromolar value.
On to `CC(C)C[C@H](NC(=O)CNC(=O)[C@H](C)NC(=O)[C@@H](NC(=O)[C@H](CC(N)=O)NC(=O)[C@H](CO)NC(=O)[C@H](CC(C)C)NC(=O)[C@@H](N)CC(C)C)C(C)C)C(=O)N[C@@H](CC(C)C)C(=O)N[C@@H](CCCCN)C(=O)N[C@@H](CCC(N)=O)C(=O)N[C@@H](Cc1ccccc1)C(=O)N[C@@H](C)C(=O)N[C@@H](CCCCN)C(=O)O` [LLSNVAGLLKQFAK], for which the minimal inhibitory concentration (MIC) in assay [14] was no less than 85.2 µM; in [12], 5.33 µM (≈ 8 µg/mL); in [5], 42.6 µM (≈ 64 µg/mL); in assay [7] it was 85.2 µM (≈ 128 µg/mL).
Turning to `CC[C@H](C)[C@H](NC(=O)[C@H](CCCCN)NC(=O)[C@H](CS)NC(=O)[C@H](C)NC(=O)[C@@H](NC(=O)[C@H](Cc1ccccc1)NC(=O)CNC(=O)[C@H](CC(C)C)NC(=O)CNC(=O)[C@@H](NC(=O)[C@H](CCCCN)NC(=O)CNC(=O)[C@H](CC(C)C)NC(=O)[C@H](CC(N)=O)NC(=O)[C@H](CCCCN)NC(=O)[C@H](CC(C)C)NC(=O)[C@@H](NC(=O)[C@H](CO)NC(=O)[C@H](CC(C)C)NC(=O)[C@H](CCSC)NC(=O)[C@@H](N)CO)C(C)C)C(C)C)C(C)C)C(=O)N[C@@H](CC(N)=O)C(=O)N[C@@H](CCCCN)C(=O)N[C@@H](CCCCN)C(=O)N[C@@H](CS)C(=O)O` [SMLSVLKNLGKVGLGFVACKINKKC], the minimal inhibitory concentration (MIC) in assay [2] is 40 µM (≈ 106 µg/mL); in assay [3] it was 10 µM (≈ 26.5 µg/mL); in assay [4], 40 µM (≈ 106 µg/mL).
Turning to `CC[C@H](C)[C@H](NC(=O)[C@H](CCCCN)NC(=O)[C@H](CS)NC(=O)[C@H](CCCCN)NC(=O)[C@@H](NC(=O)[C@H](Cc1ccccc1)NC(=O)CNC(=O)[C@H](CC(C)C)NC(=O)CNC(=O)[C@@H](NC(=O)[C@H](CCCCN)NC(=O)CNC(=O)[C@H](CC(C)C)NC(=O)[C@H](CC(N)=O)NC(=O)[C@H](CCCCN)NC(=O)[C@H](CC(C)C)NC(=O)[C@@H](NC(=O)[C@H](CO)NC(=O)[C@H](CC(C)C)NC(=O)[C@H](CCSC)NC(=O)[C@@H](N)CO)C(C)C)C(C)C)C(C)C)C(=O)N[C@@H](CC(N)=O)C(=O)N[C@@H](CCCCN)C(=O)N[C@@H](CCC(N)=O)C(=O)N[C@@H](CS)C(=O)O` [SMLSVLKNLGKVGLGFVKCKINKQC], the MIC in assay [2] was 20 µM (≈ 54.2 µg/mL); in [3] it was 10 µM (≈ 27.1 µg/mL); in assay [4], 20 µM (≈ 54.2 µg/mL).
